Source: article PMC12027554, “Inhibition of ABCG2 by SCO-101 Enhances Chemotherapy Efficacy in Cancer” (International Journal of Molecular Sciences, 2025)

How the values were obtained:
HT29SN-38 cells = test: 3H-SN-38 uptake in cell monolayers; type: cell-based, human; conditions: HT29SN-38 monolayers
Experimental: Cells were seeded at a density of 1.8 × 10^4 cells/well in 96-well plates and sub-cultured for 48 h. Drugs were dissolved in HBSS transport buffer (HBSS, 0.05% BSA, 10 mM HEPES, pH 7.4) at different concentrations. All treatments were investigated in technical triplicates. On the day of the experiments, the culture medium was exchanged with 100 μL transport buffer and cells incubated for 15 min at 37 °C. Next, the blank transport buffer was exchanged with 50 μL transport buffer containing the different compounds (2X of final concentrations) and incubated for an additional 15 min at 37 °C. The uptake experiment was started by adding 50 μL of 2 μCi/mL ^3H-SN38 and stopped after 15 min of incubation at 37 °C by removing the transport buffer from all wells. Cell monolayers were washed twice by adding/removing ice-cold transport buffer and lysed for 15 min at RT in 100 μL 0.1% TritonX-100. Cell lysates were transferred to scintillation vials containing 2 mL of scintillation fluid (Ultima Gold, PerkinElmer). Each well was washed with 100 μL purified water (milliQ), which was also transferred to respective scintillation vials. The radioactivity in each scintillation vial was measured by means of scintillation counting (Tri-Carb 2910 TR, PerkinElmer, Waltham, MA, USA).

HT29PAR cells = test: Cell viability assay (MTT / CCK-8), drug-sensitive HT29; type: cell-based, human; conditions: Homo sapiens, HT-29, 72 h
Experimental: Cells were seeded at a density of 0.2–1 × 10^4 cells/well into 96-well plates. One day after seeding, treatments were performed in triplicate for 72 h, or as otherwise indicated in the relevant panel/figure legend and kept at 37 °C/5% CO2. Growth medium alone (“untreated” cells) or DMSO was used as a control.
For MTT assays, media were replaced at the final timepoint with 100 μL of 1:10 MTT reagent (0.5 mg/mL in PBS) diluted in growth medium, and plates were incubated for 3 h. A total of 100 μL/well of stop buffer (50 g Sodium Dodecyl Sulfate, 245 mL ddH2O, 5 mL 1N HCl) was added and plates incubated for 24 h to let colored formazan crystals develop. Optical densities (ODs) were measured with a PowerWave^TM Microplate spectrophotometer (BioTek, Winooski, VT, USA) at 570 nm and 670 nm (background).
For CCK-8 assays, 100 μL of 1:10 CCK-8 reagent (pevonedistat-treated HT29 cells) diluted in medium was added to each well and cells incubated for 1–2 h at 37 °C. OD values were measured at 450 nm with a VersaMax microplate spectrophotometer (Molecular Devices, San Jose, CA, USA).
Background values were subtracted prior to further analysis. The percentage of cell viability was expressed as relative values versus untreated cells as determined by the various assays. EC50/IC50 values were calculated using GraphPad Prism (v10.4.1) and the in-built non-linear regression [log (inhibitor) vs. response—variable slope (four parameters)] calculation. For determination of synergy scores, the online tool SynergyFinder+ (https://synergyfinder.org access date 15 February 2025) was employed following 4 × 4- or 6 × 6-matrix dose-escalation cell viability experiments. Doses of drugs are indicated in the relevant figure legends and ranges have been chosen based on the response of cells to single-drug dose-dependent experiments. Synergy scores were calculated using the ZIP model, which takes the advantages of both the Loewe additivity and the Bliss independence models, aiming at a systematic assessment of various types of drug interaction patterns that may arise in a high-throughput drug combination screening.

MDR1/ABCB1 = MDR1/ABCB1 (Homo sapiens, UniProt P08183); test: Bidirectional transport of digoxin across Caco-2 cell monolayers; type: cell-based; set-up: endogenous in cells; host or cells: Caco-2; conditions: Caco-2 monolayers, 50 µM SCO-101
Experimental: Bidirectional transport experiments (basolateral-to-apical and apical-to-basolateral) with the ABCG2 substrate estrone-3-sulfate and the MDR1/ABCB1 substrate digoxin were performed in Caco-2 cell monolayers as previously described.

MDR1/ABCB1, sequence (P08183 whole entry): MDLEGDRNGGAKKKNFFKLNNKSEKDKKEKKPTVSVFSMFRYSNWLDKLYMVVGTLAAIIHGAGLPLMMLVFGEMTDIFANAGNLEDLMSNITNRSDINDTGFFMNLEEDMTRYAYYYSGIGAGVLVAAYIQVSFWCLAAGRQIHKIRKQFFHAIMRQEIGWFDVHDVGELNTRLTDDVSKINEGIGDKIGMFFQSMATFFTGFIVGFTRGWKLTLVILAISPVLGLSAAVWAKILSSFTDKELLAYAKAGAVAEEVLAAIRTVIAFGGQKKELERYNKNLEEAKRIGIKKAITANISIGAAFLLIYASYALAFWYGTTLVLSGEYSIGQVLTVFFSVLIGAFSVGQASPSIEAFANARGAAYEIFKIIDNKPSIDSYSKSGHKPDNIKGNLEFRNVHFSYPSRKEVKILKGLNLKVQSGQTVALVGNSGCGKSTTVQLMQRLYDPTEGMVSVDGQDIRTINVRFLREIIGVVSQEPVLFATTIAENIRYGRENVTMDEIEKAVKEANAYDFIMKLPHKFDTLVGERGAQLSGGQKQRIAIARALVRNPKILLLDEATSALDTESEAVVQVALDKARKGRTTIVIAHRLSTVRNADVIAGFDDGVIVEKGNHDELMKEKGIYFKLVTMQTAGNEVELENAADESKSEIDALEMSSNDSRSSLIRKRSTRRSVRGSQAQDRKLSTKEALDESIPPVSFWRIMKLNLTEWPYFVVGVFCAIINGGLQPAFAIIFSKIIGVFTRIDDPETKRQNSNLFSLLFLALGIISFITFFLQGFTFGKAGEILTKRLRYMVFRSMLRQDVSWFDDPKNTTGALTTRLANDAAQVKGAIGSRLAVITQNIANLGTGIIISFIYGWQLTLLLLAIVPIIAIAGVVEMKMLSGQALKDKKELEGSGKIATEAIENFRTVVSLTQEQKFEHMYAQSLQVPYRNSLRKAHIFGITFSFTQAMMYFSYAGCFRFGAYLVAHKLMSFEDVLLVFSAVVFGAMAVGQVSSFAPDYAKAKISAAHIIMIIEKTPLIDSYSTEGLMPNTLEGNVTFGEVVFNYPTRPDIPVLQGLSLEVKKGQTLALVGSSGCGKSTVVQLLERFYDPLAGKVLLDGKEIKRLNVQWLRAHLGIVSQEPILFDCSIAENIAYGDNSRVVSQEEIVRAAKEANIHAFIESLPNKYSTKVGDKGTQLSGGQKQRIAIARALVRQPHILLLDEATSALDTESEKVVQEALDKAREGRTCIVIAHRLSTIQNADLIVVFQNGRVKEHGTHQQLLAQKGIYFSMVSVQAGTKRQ

EC50 (HT29SN-38 cells; Homo sapiens, read-out: EC50, 3H-SN-38 uptake (regarded as IC50 of ABCG2 inhibition)): 6.4 µM | IC50 (HT29PAR cells): > 25 µM | transport of the MDR1/ABCB1 substrate digoxin (MDR1/ABCB1): only a limited difference
SMILES: O=C(Nc1cc(C(F)(F)F)cc(C(F)(F)F)c1)Nc1ccc(Br)cc1-c1nnn[nH]1 [SCO-101, N-[4-Bromo-2-(1H-1,2,3,4-tetrazol-5-yl)phenyl]-N′-[3,5-bis(trifluoromethyl)phenyl]urea]
cellular accumulation of 3H-SN-38 (HT29SN-38 cells; SCO-101 25 µM, Ko-143 0.5 µM, ZSQ 0.5 µM, vs control (HBSS)): greater than those of Ko-143-treated cells
